# Test results from ChEMBL document CHEMBL1142875, “Synthesis and biological evaluation of 4-alkylamino-6-(2-hydroxyethyl)-2-methylthiopyrimidines as new rubella virus inhibitors” (Eur J Med Chem, 2007).
# Legend:
# [1] = Antiviral activity against Rubella virus strain THERIEN in Vero cells; assay type: functional, cell-based
# [2] = Cytotoxicity against Vero cells after 48 hrs; assay type: cell-based; conditions: chlorocebus sabaeus
# [3] = Selectivity index, Ratio of CC50 for Vero cells to IC50 for Rubella virus strain THERIEN; assay type: functional
# [4] = Inhibition of Rubella virus strain THERIEN in Vero cells after 48 hrs of high multiplicity infection by plaque assay; assay type: functional; set-up: concentration or dose not given beside the values
SMILES,IC50 [1],CC50 at 48 h [2],Ratio CC50/IC50 [3],Inhibition [4]
CSc1nc(CCO)cc(N(C)C)n1,80.7 µM,587 µM,7.3,92.8%
CSc1nc(CCO)cc(N2CCN(C)CC2)n1,> 233 µM,466 µM,<2,20.6%
C=CCNc1nc(SC)nc(CCO)c1Cl,43.5 µM,481 µM,11.1,83%
CSc1nc(CCO)cc(N2CCC(C)CC2)n1,47.8 µM,233 µM,4.9,96.5%
CCCCCNc1nc(SC)nc(CCO)c1I,27.5 µM,81.8 µM,3,95.1%
CSc1nc(CCO)cc(NCc2ccc(Cl)cc2Cl)n1,48 µM,182 µM,3.8,76.1%
C#CCNc1nc(SC)nc(CCO)c1Cl,136 µM,485 µM,3.6,85.4%
CCCCCNc1nc(SC)nc(CCO)c1Cl,16.2 µM,108 µM,6.6,66.4%
C#CCN(C)c1cc(CCO)nc(SC)n1,114 µM,1050 µM,9.3,92.1%
CCCCN(CCCC)c1cc(CCO)nc(SC)n1,13.5 µM,52.5 µM,3.9,87%
CSc1nc(CCO)cc(N2CCC2)n1,> 278 µM,556 µM,<2,35.6%
CCCN(C)c1cc(CCO)nc(SC)n1,25.3 µM,519 µM,20.5,94.2%
C=CCNc1nc(SC)nc(CCO)c1Br,50.9 µM,411 µM,8.1,86.9%
CSc1nc(CCO)cc(N2CCN(c3ccccc3)CC2)n1,57 µM,189 µM,3.3,90%
C=CCNc1nc(SC)nc(CCO)c1I,15.7 µM,356 µM,22.7,93.9%
CSc1nc(CCO)cc(N(C)Cc2ccccc2)n1,> 54 µM,108 µM,<2,31.9%

SMILES,IC50 [1],CC50 at 48 h [2],Ratio CC50/IC50 [3],Inhibition [4]
C=CCN(CC=C)c1cc(CCO)nc(SC)n1,112 µM,249 µM,2.2,54.7%
CSc1nc(CCO)cc(N(CCO)CCO)n1,170 µM,1820 µM,10.7,95.7%
CSc1nc(CCO)cc(N2CCCC2)n1,48.1 µM,523 µM,10.9,72.6%
CCCN(CCC)c1cc(CCO)nc(SC)n1,> 29 µM,58 µM,<2,0%
CSc1nc(CCO)cc(N2CCN(C(C)=O)CC2)n1,49 µM,422 µM,8.6,65.6%
CCCCCNc1nc(SC)nc(CCO)c1Br,37.4 µM,93.3 µM,2.5,60%
CSc1nc(CCO)cc(N2CCN(c3ccc(F)cc3)CC2)n1,51.7 µM,180 µM,3.5,93.2%
CSc1nc(CCO)cc(N2CCN(c3cccc(C(F)(F)F)c3)CC2)n1,17.6 µM,39.2 µM,2.2,58.9%
CCCCCNc1cc(CCO)nc(SC)n1,21.6 µM,245 µM,11.4,94.7%
CSc1nc(CCO)cc(N2CCSC2)n1,22.6 µM,486 µM,21.6,95.3%
C#CCNc1nc(SC)nc(CCO)c1Br,149 µM,827 µM,5.6,94.4%
C#CCNc1cc(CCO)nc(SC)n1,108 µM,1120 µM,10.4,98.8%
COc1ccccc1N1CCN(c2cc(CCO)nc(SC)n2)CC1,27.8 µM,174 µM,6.2,96.1%
C#CCNc1nc(SC)nc(CCO)c1I,34.1 µM,716 µM,21,97.3%
CSc1nc(CCO)cc(N2CCSCC2)n1,> 231 µM,461 µM,<2,45.2%
COc1ccc(Nc2cc(CCO)nc(SC)n2)cc1,> 215 µM,430 µM,<2,43.3%
